Test results as given in ChEMBL document CHEMBL1155232, “Aminoimidazoles as potent and selective human beta-secretase (BACE1) inhibitors” (J Med Chem, 2009).
Activity calls are given as the source filed them. The calls are words filed in the database; no cut-off is given here.

What was measured:
Cathepsin D [1] = target: T1, Cathepsin D (Homo sapiens, UniProt P07339); assay: Inhibition of human cathepsin D by FRET
Beta-secretase 2 = target: T2, Beta-secretase 2 (Homo sapiens, UniProt Q9Y5Z0)
T2 sequence (Q9Y5Z0 whole entry): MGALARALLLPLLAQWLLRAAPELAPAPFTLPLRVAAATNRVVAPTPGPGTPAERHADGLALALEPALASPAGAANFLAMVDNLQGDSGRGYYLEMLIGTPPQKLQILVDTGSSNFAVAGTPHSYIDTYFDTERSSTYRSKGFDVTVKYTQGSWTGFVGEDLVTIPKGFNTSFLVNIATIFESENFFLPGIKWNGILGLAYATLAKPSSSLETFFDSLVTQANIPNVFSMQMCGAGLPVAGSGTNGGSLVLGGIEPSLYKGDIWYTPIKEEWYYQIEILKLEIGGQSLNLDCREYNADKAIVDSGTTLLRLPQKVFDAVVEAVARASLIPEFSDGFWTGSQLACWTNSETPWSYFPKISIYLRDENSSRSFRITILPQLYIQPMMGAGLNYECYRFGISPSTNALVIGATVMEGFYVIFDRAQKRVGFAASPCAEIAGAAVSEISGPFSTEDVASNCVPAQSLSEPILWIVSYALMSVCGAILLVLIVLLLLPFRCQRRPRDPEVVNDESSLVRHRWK

Beta-secretase 1 [2] = target: T3, Beta-secretase 1 (Homo sapiens, UniProt P56817); assay: Inhibition of human BACE1 by FRET
T3 sequence (P56817 whole entry): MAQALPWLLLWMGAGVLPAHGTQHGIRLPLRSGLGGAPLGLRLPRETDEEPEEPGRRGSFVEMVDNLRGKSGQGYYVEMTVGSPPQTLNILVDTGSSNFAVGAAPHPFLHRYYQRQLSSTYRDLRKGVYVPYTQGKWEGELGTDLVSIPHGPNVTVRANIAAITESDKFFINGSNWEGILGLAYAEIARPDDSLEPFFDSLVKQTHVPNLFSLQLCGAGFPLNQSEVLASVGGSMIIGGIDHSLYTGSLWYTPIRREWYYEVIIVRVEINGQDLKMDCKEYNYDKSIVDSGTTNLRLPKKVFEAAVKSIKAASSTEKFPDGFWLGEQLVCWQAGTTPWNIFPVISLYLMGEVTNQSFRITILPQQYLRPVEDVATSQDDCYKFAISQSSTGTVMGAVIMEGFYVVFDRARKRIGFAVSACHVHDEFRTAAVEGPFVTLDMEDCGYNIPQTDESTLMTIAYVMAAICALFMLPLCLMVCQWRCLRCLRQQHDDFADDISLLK

Beta-secretase 1 [3] = target: T3, Beta-secretase 1; assay: Inhibition of BACE1 expressed in CHO cells co-expressing human wild type APP protein by ELISA; type: cell-based
Cathepsin D [4] = target: T1, Cathepsin D; assay: Inhibition of human cathepsin D at 200 uM by FRET
Renin = target: T4, Renin (Homo sapiens, UniProt P00797); assay: Inhibition of human recombinant renin by FRET
T4 sequence (P00797 whole entry): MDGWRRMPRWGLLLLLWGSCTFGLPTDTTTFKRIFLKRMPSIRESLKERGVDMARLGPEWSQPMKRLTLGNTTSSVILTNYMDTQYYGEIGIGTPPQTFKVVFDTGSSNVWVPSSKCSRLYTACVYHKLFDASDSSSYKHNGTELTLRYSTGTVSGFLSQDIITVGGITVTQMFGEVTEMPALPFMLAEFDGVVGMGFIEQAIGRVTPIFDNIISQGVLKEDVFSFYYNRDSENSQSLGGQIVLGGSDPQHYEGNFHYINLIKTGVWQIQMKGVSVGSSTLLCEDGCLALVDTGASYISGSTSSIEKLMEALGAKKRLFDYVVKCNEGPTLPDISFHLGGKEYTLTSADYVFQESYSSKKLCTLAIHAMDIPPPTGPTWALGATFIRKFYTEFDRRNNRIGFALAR

[5] = Inhibition of pepsin at 100 uM by FRET
Cathepsin D [6] = target: T1, Cathepsin D; assay: Inhibition of human cathepsin D at 100 uM by FRET
Renin (Homo sapiens) = target: T5, Renin (Homo sapiens) (UniProt P00797); assay: Inhibition of human recombinant renin at 50 uM by FRET
T5 sequence (whole entry): T4 sequence (P00797 whole entry)

[7] = target: T6, Beta-secretase 2 (Homo sapiens) (UniProt Q9Y5Z0); assay: Inhibition of human BACE2 at […] by FRET
T6 sequence (whole entry): T2 sequence (Q9Y5Z0 whole entry)

Mus musculus [8] = assay: Reduction in Abeta-40 level in Tg2576 mouse plasma at 30 mg/kg, po administered as single dose after 6 hrs; type: functional; parameters: scale not given: the % may be the effect or the level left
Mus musculus [9] = assay: Reduction in Abeta-40 level in Tg2576 mouse brain at 30 mg/kg, po administered as single dose after 6 hrs; type: functional, organism-based; parameters: dose 30 mg/kg
[10] = target: T6, Beta-secretase 2 (Homo sapiens); assay: Inhibition of human BACE2 at 100 uM by FRET

T1 sequence (P07339 65-162 limits assumed): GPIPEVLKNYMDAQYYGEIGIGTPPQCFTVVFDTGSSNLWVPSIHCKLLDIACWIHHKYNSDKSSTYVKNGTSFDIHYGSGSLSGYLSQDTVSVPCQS
T1 sequence (P07339 169-412 limits assumed): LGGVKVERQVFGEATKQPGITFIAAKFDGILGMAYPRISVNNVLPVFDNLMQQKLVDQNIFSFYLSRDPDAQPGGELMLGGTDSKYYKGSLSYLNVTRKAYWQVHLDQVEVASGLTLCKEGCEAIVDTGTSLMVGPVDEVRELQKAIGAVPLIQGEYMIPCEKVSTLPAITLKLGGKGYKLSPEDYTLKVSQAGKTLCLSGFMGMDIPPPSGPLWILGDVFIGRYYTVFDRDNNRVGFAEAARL

| IC50 (Cathepsin D [1]) | IC50 (Beta-secretase 2) | EC50 (Beta-secretase 1 [3]) | SMILES | other results |
| --- | --- | --- | --- | --- |
| 24.9 µM | 22.4 µM | 5.1 µM | COc1ccc(Cc2cccc(C3(c4ccccc4)N=C(N)N4CCCN=C43)c2)cc1 (stereo unspecified) |  |
|  | 24.4 µM | 20.9 µM | COc1cccc(C2(c3ccccc3)N=C(N)N3CCCN=C32)c1 (stereo unspecified) | IC50 (Beta-secretase 1 [2]): 20.3 µM; inhibition (Cathepsin D [6]): 22% |
| 15.4 µM |  |  | NC1=NC(c2cccc(-c3cccnc3F)c2)(c2ccc3c(c2)OCO3)C2=NCCCN12 (stereo unspecified) | inhibition (Renin (Homo sapiens)): 24%; inhibition [5]: 18% |
| 9.2 µM | 7 µM | 4.6 µM | NC1=NC(c2ccccc2)(c2cccc(Cc3ccc(F)cc3)c2)C2=NCCCN12 (stereo unspecified) | inhibition (Renin (Homo sapiens)): 15%; inhibition [5]: 6% |
| 52.5 µM | 10.9 µM | 5.1 µM | NC1=NC(c2ccccc2)(c2cccc(Cc3ccccc3)c2)C2=NCCCN12 (stereo unspecified) |  |
| 36.2 µM | 10.7 µM |  | NC1=N[C@](c2ccc(OC(F)(F)F)cc2)(c2cccc(-c3cncnc3)c2)C2=NCCCN12 | inhibition (Renin (Homo sapiens)): 36%; inhibition [5]: 12% |
| 47.4 µM |  | 1.6 µM | NC1=NC(c2ccc(OC(F)(F)F)cc2)(c2cccc(Br)c2)C2=NCCCN12 (stereo unspecified) | inhibition [7]: 39%; IC50 (Beta-secretase 1 [2]): 2.6 µM |
| 78.7 µM | 16.7 µM |  | NC1=NC(c2ccc(OC(F)(F)F)cc2)(c2cccc(-c3cncnc3)c2)C2=NCCCN12 (stereo unspecified) |  |
| 63.4 µM |  |  | CCOc1ccc(C2(c3cccc(-c4cccnc4F)c3)N=C(N)N3CCCN=C32)cc1OCC (stereo unspecified) | inhibition (Renin (Homo sapiens)): 14%; IC50 (Beta-secretase 1 [2]): 0.08 µM; inhibition [5]: 11% |

Further lines, the molecule ahead of its results:

| SMILES | IC50 (Cathepsin D [1]) | IC50 (Beta-secretase 2) | EC50 (Beta-secretase 1 [3]) | other results |
| --- | --- | --- | --- | --- |
| NC1=NC(c2ccc(OC(F)(F)F)cc2)(c2cccc(-c3cccnc3F)c2)C2=NCCCN12 (racemic) | 18.1 µM |  |  |  |
| CC1(C)CN2C(N)=NC(c3ccc(OC(F)(F)F)cc3)(c3cccc(-c4cccnc4F)c3)C2=N1 (stereo unspecified) | 33 µM | 17.3 µM | 1.5 µM | IC50 (Beta-secretase 1 [2]): 0.19 µM |
| NC1=NC(c2cccc(-c3cccnc3F)c2)(c2ccc3c(c2)OC(F)(F)O3)C2=NCCCN12 (stereo unspecified) | 95.3 µM |  |  |  |
| NC1=NC(c2ccc(OC(F)(F)F)cc2)(c2cccc(CCC3CC3)c2)C2=NCCCN12 (stereo unspecified) | 16.4 µM | 3.78 µM | 0.95 µM |  |
| NC1=NC(c2ccccc2)(c2ccccc2)C2=NCCCN12 |  |  |  | inhibition (Cathepsin D [4]): 16% |
| NC1=NC(c2ccc(OC(F)(F)F)cc2)(c2cccc(-c3cccnc3F)c2)C2=NOCCN12 (stereo unspecified) | 2.4 µM |  | 0.2 µM | IC50 (Renin): 2.04 µM; inhibition [5]: 12% |
| COc1ccc(C2(c3cccc(-c4cccnc4F)c3)N=C(N)N3CCCN=C32)cc1 (stereo unspecified) | 16.5 µM |  | 1.63 µM | IC50 (Beta-secretase 1 [2]): 0.07 µM |
| NC1=NC(c2ccc(OC(F)(F)F)cc2)(c2cccc(-c3cccnc3F)c2)C2=NCCN12 (stereo unspecified) | 10.7 µM |  |  |  |
| NC1=NC(c2cccc(-c3cccnc3F)c2)(c2ccc3c(c2)OCCO3)C2=NCCCN12 (stereo unspecified) | 9.6 µM |  |  |  |
| NC1=N[C@@](c2ccc(OC(F)(F)F)cc2)(c2cccc(-c3cncnc3)c2)C2=NCCCN12 |  |  |  | inhibition (Cathepsin D [6]): 29% |
| COc1ccc(C2(c3cccc(-c4cncnc4)c3)N=C(N)N3CCCN=C32)cc1 (stereo unspecified) | 69.5 µM | 16.2 µM |  |  |
| NC1=N[C@](c2ccc(OC(F)(F)F)cc2)(c2cccc(-c3cccnc3F)c2)C2=NCCCN12 | 6.9 µM | 3.6 µM |  | IC50 (Renin): 20.8 µM; Activity (Mus musculus [8]): 71%; Activity (Mus musculus [9]): inactive; inhibition [5]: 13% |
| CC(C)(C)c1cccc(C2(c3ccccc3)N=C(N)N3CCCN=C32)c1 (stereo unspecified) | 150 µM |  | 3 µM | inhibition [10]: 21%; IC50 (Beta-secretase 1 [2]): 30.2 µM |
| CCCc1cccc(C2(c3ccc(OC(F)(F)F)cc3)N=C(N)N3CCCN=C32)c1 (stereo unspecified) | 93.7 µM |  | 2.1 µM |  |
| NC1=N[C@@](c2ccc(OC(F)(F)F)cc2)(c2cccc(-c3cccnc3F)c2)C2=NCCCN12 | 56.9 µM |  |  |  |
| NC1=NC(c2ccc(OC(F)(F)F)cc2)(c2cccc(-c3cccnc3F)c2)/C2=N/CCCCCN12 (stereo unspecified) | 11.3 µM | 10.8 µM |  |  |
| NC1=NC(c2ccccc2)(c2cccc(C(F)(F)F)c2)C2=NCCCN12 (stereo unspecified) |  | 30.1 µM | 5.1 µM | IC50 (Beta-secretase 1 [2]): 21.9 µM; inhibition (Cathepsin D [6]): 28% |
| NC1=NC(c2ccc(OC(F)(F)F)cc2)(c2cccc(-c3cccnc3F)c2)C2=NCCCCN12 (stereo unspecified) | 10.8 µM |  | 0.3 µM | IC50 (Beta-secretase 1 [2]): 0.08 µM |
